The source of these data is paper PMC6628379, “Synthesis and Biological Evaluation of Novel Selenyl and Sulfur-L-Dopa Derivatives as Potential Anti-Parkinson’s Disease Agents” (Biomolecules, 2019).

Entries after “also recorded” stand apart in the source; their conditions may differ. Structures can show the parent of a compound that is named as a salt. Where two headings read alike, the source gives them in different places. Where a SMILES comes first, the peptide text is derived from it. [ ]: non-standard residue; d: D form. dDopa = N[C@H](Cc1ccc(O)c(O)c1)C(=O)O; dSeMet = C[Se]CC[C@@H](N)C(=O)O

Data set [1] concerns differentiated and H2O2-lesioned SH-SY5Y human neuroblastoma cells. As to the kind of experiment: Neuroprotection against H2O2 (MTT). In kind it is cell-based. The following applies: 1 µM. On the procedure:
(§1) In order to obtain a dopaminergic phenotype, the cells were treated with retinoic acid (RA)/phorbol 12-myristate 13-acetate (PMA) in a medium supplemented with RA (10 μM) for three days; then, the medium was removed and replaced with growth medium containing PMA (80 nM) for three days.
(§2) SP1–6 were dissolved in dimethyl sulfoxide (DMSO). SH-SY5Y cells were plated onto 96-well plates (2700 cell/well). The undifferentiated cells (UC) were grown for 24 h in normal medium and then incubated with seven different compounds at different concentrations (1, 10, and 100 µM). […] After 24 h and 48 h of incubation with or without the compounds, the both sets of cells (UC and DC) were assessed for viability by using a colorimetric assay of 3-[4,5-dimethylthiazol-2-yl]-2,5-diphenyltetrazolium bromide (MTT). The differentiated SH-SY5Y cells were treated with SP6 or LD compounds at 1 µM for 1 h and then exposed to 25, 50, 75, and 150 µM 6-OHDA. After a further 24 h of incubation, the cultures were assessed for viability using an MTT assay. For experiments with the neurotoxin H2O2, the differentiated SH-SY5Y cells were pretreated with SP6 or LD compounds at 1 µM for 24 h and then exposed to 25, 150, and 300 µM H2O2 for a further 24 h. Cell viability was detected using the MTT assay.

Data set [2] deals with undifferentiated SH-SY5Y human neuroblastoma cells. Description: MTT cell viability, undifferentiated SH-SY5Y cells. Format: cell-based.
The subject of data set [3] is RA/PMA-differentiated and 6-OHDA-lesioned SH-SY5Y human neuroblastoma cells. Description: Neuroprotection against 6-OHDA (MTT). In kind it is cell-based. Conditions: 1 µM. On the procedure:
as §1, §2

In data set [4] the test system is differentiated SH-SY5Y human neuroblastoma cells. As to the kind of experiment: Intracellular ROS measurement (H2DCFDA assay). In kind it is cell-based. Conditions: 1 µM for 24 h, then 25 µM H2O2; 2.5 and 5 min; vs CTRL + 25 µM H2O2. On the procedure:
SHSY-5Y human neuroblastoma cells were plated (2700 cells/well) into special optics 96-well plates (Corning-Costar, New York, USA) and the cells were treated with retinoic acid (RA)/phorbol 12-myristate 13-acetate (PMA) in order to obtain a dopaminergic phenotype. The differentiated cells were treated with SP1-6 at 1 μM for 24 h and then washed with an imaging buffer (125 mM NaCl, 5 mM KCl, 1.2 mM MgSO4, 5 mM glucose, 25 mM HEPES, and 2 mM CaCl2). A concentration of 10 μM of 2',7'-dichlorofluorescin diacetate (H2DCFDA, Molecular probes, Life Technologies REF […]) was added and the plates were incubated at 37 °C for 30 min. After the incubation, cells were washed with an imaging buffer and treated with 25 μM H2O2 for an immediate fluorescence measurement. Plates were read every 50 s from 0 to 5 min for kinetic data analysis using a microplate reader (Synergy H1, BioTek), with excitation and emission wavelengths at 490 nm and 520 nm, respectively, and analyzed by Gen 5 version 2.08 (BioTek).

The nature of data set [5]: BBB-PAMPA (parallel artificial membrane permeability). In kind it is in vitro ADME, porcine. Conditions: for Classification: PAMPA-BBB class by Pe; for Papp at 16 h: pig, PAMPA-BBB, 16 h at room temperature, pH 7.4, read-out: Pe; for capacity to cross the BBB: BBB-PAMPA. On the procedure:
The blood–brain barrier (BBB)-PAMPA method was used to evaluate the ability of SPs to cross the BBB via passive diffusion. The artificial membrane of each microplate was coated with 5 µL of a porcine polar brain lipid extract mixture (purchased from Avantis Polar Lipids, Alabaster, AL, USA). A total of 150 µL of drug solution was put on the membrane (donor plate) while the bottom plate was filled with 300 µL of buffer solution (acceptor plate). The system was incubated for 16 h at room temperature and then the concentration of the drug in the acceptor plate was evaluated using HPLC. The concentration of the drug at the theoretical equilibrium was determined diluting 500 µM of SP solution with phosphate buffer pH 7.4 and then analyzed using HPLC [18]. Pe (10^−6 cm/s) was calculated as the effective permeability coefficient.
In general terms: The PAMPA barrier holds no transporters, so it reflects passive diffusion.

The test system of data set [6] is differentiated SH-SY5Y human neuroblastoma cells. Description: MTT cell viability, RA/PMA-differentiated SH-SY5Y cells. Format: cell-based. Conditions: dopaminergic differentiated cells, 48 h, 100 µM.
Data set [7] in a line: Octanol/water partition coefficient (logP o/w). Format: physicochemical. The following applies: n-octanol / phosphate buffer pH 7.4, HPLC. On the procedure: The clogP values were calculated using ACD LogP software package, version 4.55 (Advanced Chemistry Development Inc., Toronto, Canada). Octanol/water partition coefficients (logP o/w) were determined by placing 5 mg of SP into 1 mL of anhydrous n-octanol and an equal volume of phosphate buffer pH 7.4. After vigorously shaking, the resulting mixture was allowed to stand until the complete separation of the two phases. Finally, each phase was filtered and analyzed using HPLC [16].

Data set [8] has as its system differentiated SH-SY5Y neuroblastoma cells. Description: Nitroblue tetrazolium (NBT) assay. Format: cell-based, human. The following applies: 1 µM, 24 h incubation. On the procedure:
The differentiated SH-SY5Y cells were treated with SP6 and/or LD compounds at 1 µM for 24 h, and then 10^6 cells were harvested, centrifuged for 5 min at 1200 rpm, and resuspended in 1 mL 0.9% NaCl, in which NBT (nitro blue tetrazolium chloride, 1 mg/mL) was dissolved. The cells were incubated for 3 h at 37 °C, centrifuged (10 min at 1200 rpm), resuspended in 1 mL dimethyl sulfoxide, and left for 20 min at 37 °C. Then, cells were plated in a 96 well plate (2 x 10^5 cell/well) and read at 550 nm using a scanning multi-well spectrophotometer (Cary50MPR, Varian).

Data set [9] is described as follows: Stability in human plasma. The following applies: for half-life at 1 mg/mL: human, 80% human plasma with 20% 0.02 M phosphate buffer. In kind it is in vitro ADME. On the procedure: Human plasma was purchased from 3H Biomedical (Uppsala, Sweden, Europe). SP stock solution was added to a mixture of 80% plasma and 20% of 0.02 M phosphate buffer (pH 7.4) at 37 °C to obtain a final drug concentration of 1 mg/mL. Samples of 100 μL were taken at various times, and 200 μL of MeOH containing 0.01 M HCl was used to stop the enzymatic activity. The samples were centrifuged for 5 min at 5000× g, and the resultant supernatants were filtered and analyzed using HPLC [17].

Where [10] appears, read: 24 h before and during 24 h with 150 µM H2O2.
The mark [11] stands for this setting: 24 h before and during 24 h with 300 µM H2O2.
Where [12] appears, read: 24 h, all tested concentrations (1, 10, 100 µM).
[13] abbreviates: 80% human plasma, 20% 0.02 M phosphate buffer pH 7.4, 37 °C.
Where [14] appears, read: pH 7.4, 80% human plasma, 20% 0.02 M phosphate buffer pH 7.4, 37 °C, read-out: t1/2.
[15] abbreviates: pH 7.4, human plasma, read-out: half-life.

As to `N[C@@H](Cc1ccc(O)c(O)c1)C(=O)O` [LD, L-p-3,4-dihydroxyphenylalanine hydrochloride, reference compound], the “protection against H2O2 toxicity (cell viability)” value in data set [1] (setting [10]) and in [1] (setting [11]) was “ineffective” throughout. Also, the cytotoxic effect entry was “did not show cytotoxic effects” in [2] (setting [12]); “toxic effect” in [2] (48 h, 100 µM); “detrimental effect” in data set [6]. For the same compound, the “protection against 6-OHDA toxicity (cell viability)” value in data set [3] (1 h before and during 24 h with 150 µM 6-OHDA) was “partially counteract the toxic effect”. In addition, in [4], the “antioxidant activity (intracellular ROS)” value is reported as “significant antioxidant activity”. Also, the Classification entry in data set [5] is “CNS^− (CNS^− (indicative of low BBB permeation): Pe (10^−6 cm/s) < 2)”. For the same compound, the Papp at 16 h in [5] stood at 0.75 ×10⁻⁶ cm/s. For the same compound, in data set [7], the logP (as a rule, a log measure of how a compound divides between an organic and an aqueous phase) was -2.46. In [8], the superoxide anion level result is recorded as “seemed to increase it; also recorded: increase in superoxide anion levels”.

As for `COC(=O)[C@@H](Cc1ccc(OC(C)=O)c(OC(C)=O)c1)NC(=O)CSSCC(=O)N[C@H](Cc1ccc(OC(C)=O)c(OC(C)=O)c1)C(=O)OC` [SP1, Methyl (2R)-3-[3,4-bis(acetyloxy)phenyl]-2-{2-[({[(2R)-3-[3,4-bis(acetyloxy)phenyl]-1-methoxy-1-oxopropan-2-yl]carbamoyl}methyl)disulfanyl]acetamido}propanoate], in [5], the Classification result is given as “CNS^− (CNS^− (indicative of low BBB permeation): Pe (10^−6 cm/s) < 2)” and the Papp at 16 h turned out to be 1.15 ×10⁻⁶ cm/s. In addition, the Kobs in data set [9] (setting [13]) was 0.024 (±0.001) min^−1. For the same compound, the half-life at 1 mg/mL in data set [9] (setting [14]) amounted to 0.48 h. The logP in data set [7] was -0.163.

On to `COC(=O)[C@@H](Cc1ccc(OC(C)=O)c(OC(C)=O)c1)NC(=O)CCSSCCC(=O)N[C@H](Cc1ccc(OC(C)=O)c(OC(C)=O)c1)C(=O)OC` [SP2, Methyl (2R)-3-[3,4-bis(acetyloxy)phenyl]-2-{3-[(2-{[(2R)-3-[3,4-bis(acetyloxy)phenyl]-1-methoxy-1-oxopropan-2-yl]carbamoyl}ethyl)disulfanyl]propanamido}propanoate], for which, in data set [5], the Classification entry is on record as “CNS^− (CNS^− (indicative of low BBB permeation): Pe (10^−6 cm/s) < 2)” and the Papp at 16 h worked out at 1.82 ×10⁻⁶ cm/s. Also, the Kobs in [9] (setting [13]) is 0.010 (±0.001) min^−1. The half-life at 1 mg/mL in [9] (setting [14]) was 1.1 h. In [7], this compound came in with a logP of 0.828.

Take `COC(=O)[C@@H](Cc1ccc(OC(C)=O)c(OC(C)=O)c1)NC(=O)[C@@H](CSSC[C@@H](NC(C)=O)C(=O)N[C@H](Cc1ccc(OC(C)=O)c(OC(C)=O)c1)C(=O)OC)NC(C)=O` [SP3, Methyl (2R)-3-[3,4-bis(acetyloxy)phenyl]-2-[(2S)-3-{[(2S)-2-{[(2R)-3-[3,4-bis(acetyloxy)phenyl]-1-methoxy-1-oxopropan-2-yl]carbamoyl}-2-acetamidoethyl]disulfanyl}-2-acetamidopropanamido]propanoate]: in [5], the “capacity to cross the BBB” value is “possess the capacity to cross the BBB” and the Papp at 16 h stood at 3.1 ×10⁻⁶ cm/s. Also, the Kobs in data set [9] (setting [13]) was 0.014 (±0.003) min^−1. Moreover, in [9] (setting [14]), the half-life at 1 mg/mL is 0.837 h. In addition, the log partition coefficient (logP) in [7] was determined as 1.07.

On to `COC(=O)[C@@H](Cc1ccc(OC(C)=O)c(OC(C)=O)c1)NC(=O)C[Se][Se]CC(=O)N[C@H](Cc1ccc(OC(C)=O)c(OC(C)=O)c1)C(=O)OC` [SP4, Methyl (2R)-3-[3,4-bis(acetyloxy)phenyl]-2-{2-[({[(2R)-3-[3,4-bis(acetyloxy)phenyl]-1-methoxy-1-oxopropan-2-yl]carbamoyl}methyl)diselanyl]acetamido}propanoate], for which, in [5], the Classification entry is “CNS^+ (CNS^+ (indicative of high BBB permeation): Pe (10^−6 cm/s) > 4)” and the Papp at 16 h turned out to be 0.94 ×10⁻⁶ cm/s. In data set [9] (setting [13]), the Kobs entry was “Immediate hydrolysis” and the t1/2 entry is reported as “Immediate hydrolysis”. This compound had a lipophilicity (logP) in data set [7] of -1.17.

Turning to `COC(=O)[C@@H](Cc1ccc(O)c(O)c1)NC(=O)[C@@H](CC[Se]C)NC(C)=O` [SP5, Methyl (2R)-3-(3,4-dihydroxyphenyl)-2-[(2R)-2-acetamido-4-(methylselanyl)butanamido]-propanoate] (Ac-[dSeMet]-[dDopa]-OMe), in data set [5], the “capacity to cross the BBB” value is recorded as “unable to completely cross the BBB”, the Classification result is “CNS^− (CNS^− (indicative of low BBB permeation): Pe (10^−6 cm/s) < 2)” and the Papp at 16 h amounted to 2.3 ×10⁻⁶ cm/s. Further, the Kobs in [9] (setting [13]) is listed as 0.005 (±0.0001) min^−1. For the same compound, the half-life at 1 mg/mL in data set [9] (setting [14]) amounted to 2.1 h. Further, the half-life at 1 mg/mL in [9] (setting [15]) is greater than 2 h. Further, the log partition coefficient (logP) in data set [7] stood at 0.51.

In the case of `COC(=O)[C@@H](Cc1ccc(OC(C)=O)c(OC(C)=O)c1)NC(=O)[C@@H](CC[Se]C)NC(C)=O` [SP6, Methyl (2R)-3-[3,4-bis(acetyloxy)phenyl]-2-[(2R)-2-acetamido-4-(methylselanyl)butanamido]-propanoate], the “protection against H2O2 toxicity (cell viability)” value is on record as “effective in countering the toxic effect” in data set [1] (setting [10]) and “partially countered” in data set [1] (setting [11]). Further, the cytotoxic effect entry in [2] (setting [12]) is recorded as “did not show cytotoxic effects”. Also, in data set [3] (1 h before and during 24 h with 25, 50, 75, 150 µM 6-OHDA), the “protection against 6-OHDA toxicity (cell viability)” value is on record as “protective action against the toxin at all tested concentrations”. In addition, the “antioxidant activity (intracellular ROS)” value in data set [4] is reported as “significant antioxidant activity; also recorded: able to reduce ROS levels”. Moreover, in [5], the “capacity to cross the BBB” value is recorded as “possess the capacity to cross the BBB”. In addition, the Papp at 16 h in [5] is 4.5 ×10⁻⁶ cm/s. For the same compound, the Kobs in data set [9] (setting [13]) was 0.004 (±0.0001) min^−1. Moreover, the “stability in plasma” value in data set [9] (human plasma) is given as “resistant to the enzymatic hydrolyses by plasma esterases”. Also, the half-life at 1 mg/mL in [9] (setting [14]) was 2.89 h; in data set [9] (setting [15]), greater than 2 h. The same compound displayed a logP in [7] of 1.44. Further, in data set [8], the superoxide anion level result was “significantly reduced the superoxide anion level”.
